Results: patent US20210244858A1, “SOFT TISSUE FILLER COMPOSITION WITH HYALURONIC ACID AND BENZYL ALCOHOL” (Prollenium Medical Technologies, Inc., priority 2018, published 2021)
Like-named read-outs stand apart in the source and are kept apart here.

Experiments:
[1] = assay type: physicochemical; settings: for Lidocaine mg/g (45° C.) / Benzyl alcohol mg/g (55° C.): in REVANESSE dermal filler
Experimental: The benzyl alcohol product was held for 12 weeks at 55° C. which approximates 2 years shelf life; the amount of benzyl alcohol degraded by only 5.75%. In contrast, the amount of lidocaine degraded by 11.61% over 12 weeks at 45° C., which approximates to 1 year shelf life.

[2] = cited from earlier work
[3] = 5% solution, animal studies; cited from earlier work
[4] = 0.05% to 5% solution; cited from earlier work

| stability compared with lidocaine [1] | Benzyl alcohol mg/g (55° C.) ([1]; 0 weeks) | Benzyl alcohol mg/g (55° C.) ([1]; 4 weeks) | Benzyl alcohol mg/g (55° C.) ([1]; 8 weeks) | amount degraded ([1]; 12 weeks, 8.7 mg/g) | Benzyl alcohol mg/g (55° C.) ([1]; 12 weeks) | SMILES | Lidocaine mg/g (45° C.) ([1]; 0 weeks) | Lidocaine mg/g (45° C.) ([1]; 4 weeks) | Lidocaine mg/g (45° C.) ([1]; 8 weeks) | amount degraded ([1]; 12 weeks, 3.1 mg/g) | Lidocaine mg/g (45° C.) ([1]; 12 weeks) | injection pain and anesthesia duration ([2]; in combination with lidocaine (1%)) | duration of anesthetic effect compared with lidocaine ([2]; in vivo) | injection pain compared with plain lidocaine ([2]; injection) | safety [3] | anesthetic effectiveness [4] |
| --- | --- | --- | --- | --- | --- | --- | --- | --- | --- | --- | --- | --- | --- | --- | --- | --- |
|  |  |  |  |  |  | CCN(CC)CC(=O)Nc1c(C)cccc1C [Lidocaine, lidocaine, reference compound] | 3.1 mg/g | 2.9 mg/g | 2.82 mg/g | 11.61% | 2.74 mg/g |  |  |  |  |  |
| better than lidocaine | 8.7 mg/g | 8.7 mg/g | 8.6 mg/g | 5.75% | 8.2 mg/g | OCc1ccccc1 [Benzyl alcohol, benzyl alcohol] |  |  |  |  |  | reduces injection pain as well as anesthesia duration | shorter duration than lidocaine | significantly less painful | deemed safe | considered somewhat effect |
